The text below walks through data of article PMC10176470, “Engaging a Non-catalytic Cysteine Residue Drives Potent and Selective Inhibition of Caspase-6” (Journal of the American Chemical Society, 2023).

Assay [1] has as its system lamin A cleavage by caspase-6 in SK-N-AS cells. Put plainly: Lamin cleavage assay (in-cell western after staurosporine induction). To be noted: Homo sapiens, 1 h compound then staurosporine 3 h. The class given is cell-based.
Procedure: This assay measured lamin A cleavage under staurosporine-induced caspase activation; while staurosporine activates all executioner caspases, lamin A cleavage monitors only the activity of C6. After 1 h of preincubation with the compound and 3 h of incubation with staurosporine, lamin A cleavage was measured by in-cell western.
Inhibition of lamin A cleavage in SK-N-AS cells after staurosporine induction of caspases. Cells were treated with the indicated compound for 1 h before the addition of 10 μM staurosporine for 4 h. Error bars indicate the standard deviation from n = 4 replicate samples.
serves as a useful target-engagement assay in cells. We used the procedure of Mintz, et al, with the following modifications: SK-N-AS cells were seeded at 10,000 cells/well in black clear bottom 384-
well plates coated with poly-D-lysine and allowed to adhere overnight. Wells were treated with
varying doses of casapase-6 inhibitor, from 5 µM – 0.1 nM in 2-fold dilutions. After one hour, cells
were treated with 10 µM staurosporine to induce apoptosis and activation of multiple caspases. 3
hours after staurosporine addition, cells were fixed and permeabilized before in-cell westerns were
performed, as described.9
Assay [2] concerns the target T1, proteins of HEK293T cells transiently overexpressing caspase-6 (Homo sapiens, UniProt P40926).
T1 sequence (P40926 25-338): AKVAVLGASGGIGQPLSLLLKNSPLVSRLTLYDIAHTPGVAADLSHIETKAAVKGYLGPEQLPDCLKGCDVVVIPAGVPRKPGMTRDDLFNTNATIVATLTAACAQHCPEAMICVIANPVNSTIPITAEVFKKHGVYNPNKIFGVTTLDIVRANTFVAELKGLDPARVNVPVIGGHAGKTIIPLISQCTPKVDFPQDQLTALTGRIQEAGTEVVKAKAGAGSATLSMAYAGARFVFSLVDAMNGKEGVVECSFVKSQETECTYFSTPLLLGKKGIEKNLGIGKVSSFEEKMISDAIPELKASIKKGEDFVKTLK
Put plainly: SILAC proteomics / in-gel fluorescence, competition of probe 13-t labeling by 3a. The settings on record: Comp; protein MDH2 P40926.
Procedure: (§1) Cells were lysed, and heavy and light SILAC lysates were combined in a 1:1 ratio and subjected to CuAAC reaction with azido-biotin to biotinylate probe-labeled proteins for subsequent capture on streptavidin-coated beads. Bead-bound proteins were split for analysis by in-gel fluorescence and tryptic digestion on-bead for LC–MS/MS analysis.
(§2) SILAC labeling and alkyne probe treatment: HEK293T cells were seeded into 8x 15 cm plates at
(§3) a density of 500,000 cells/plate. 4 of these plates were grown in light SILAC DMEM and 4 were
(§4) grown in heavy SILAC DMEM all containing 10% FBS and 4.5g/L glucose. The next day, all 8
(§5) plates were transfected with a pCMV6-Entry plasmid coding for caspase-6-myc-DDK lacking the
(§6) prodomain. After 24 hours, media was replaced with fresh SILAC growth media containing 4.5 g/L
(§7) glucose and 3% FBS. 24 hours later the plates were treated with probe and inhibitor for 1 hours as
(§8) follows: 2 of the light plates were treated with vehicle, 2 light plates and 2 heavy plates treated with
(§9) for 60 minutes. After treatment, media was removed, and cells were washed with 15 mL PBS for 5
(§10) minutes. Cells were then harvested by scraping in cold PBS and lysed in the presence of Roche
(§11) complete protease inhibitors. Lysates were clarified by centrifugation at 10,000xg for 10 minutes and
(§12) the protein in the supernatant was quantified by BCA assay.
(§13) Proteomics assay: 1 mg of each lysate was diluted to 2mg/ml in PBS with Roche complete protease
(§14) inhibitors. To this was added 0.1 mM biotin-azide, 1 mM tris(2-carboxyethyl)phosphine (TCEP), 0.1
(§15) mM Tris((1-benzyl-4-triazolyl)methyl)amine (TBTA) ligand, and 1 mM CuSO4 in a final volume of
(§16) 0.5 mL. The reaction was incubated at room temperature for 1 hour and was vortexed every 15
(§17) minutes. After 1 hour, proteins are precipitated and are pelleted by centrifuging at 16,000xg for 4
(§18) min at 4 °C. The supernatants were discarded, and the pellets were solubilized with 0.5 mL cold
(§19) The cold methanol wash was then repeated, and the washed
(§20) pellets were resuspended in 1 mL of 1.2% SDS and sonicated until clear. The samples were heat
(§21) denatured at 80-90 °C for 5 minutes and any insoluble particles were removed by centrifugation at
(§22) 6,500xg for 5 minutes. The 1 mL supernatant was transferred to a 15 mL conical tubes containing 5
(§23) mL of PBS and 150 µL of washed neutravidin beads were added. The samples were incubated for 2
(§24) hours at 4 °C while rotating, at which point the samples were warmed to resolubilize any precipitated
(§25) SDS. The beads were pelleted by centrifugation at 1400xg for 3 min and washed for 10 minutes with
(§26) the following solutions: 2x 1% NP-40, 2x PBS + 1 M NaCl, and 2x 50 mM ammonium bicarbonate
(§27) (ABC) + 2 M urea. The beads were then transferred to a 1.5 mL microcentrifuge tube using 2x250
(§28) µL 100 mM Tris pH 8.0 + 4 M Guanidium hydrochloride (final volume 500 µL).

The target of assay [3] is proteins of HEK293T cells transiently overexpressing caspase-6 (Homo sapiens, UniProt Q15233). Described as above. The settings on record: Comp; protein NONO Q15233.
Procedure: as §1, §2, §3, §4, §5, §6, §7, §8, §9, §10, §11, §12, §13, §14, §15, §16, §17, §18, §19, §20, §21, §22, §23, §24, §25, §26, §27, §28
Assay [4] concerns the target proteins of HEK293T cells transiently overexpressing caspase-6 (Homo sapiens, UniProt P42704). The description is as above. To be noted: Comp; protein LRPPRC P42704.
Procedure: as §1, §2, §3, §4, §5, §6, §7, §8, §9, §10, §11, §12, §13, §14, §15, §16, §17, §18, §19, §20, §21, §22, §23, §24, §25, §26, §27, §28
Assay [5] addresses proteins of HEK293T cells transiently overexpressing caspase-6 (Homo sapiens, UniProt P63261). The assay is described as above. To be noted: Comp; protein ACTG1 P63261.
Procedure: as §1, §2, §3, §4, §5, §6, §7, §8, §9, §10, §11, §12, §13, §14, §15, §16, §17, §18, §19, §20, §21, §22, §23, §24, §25, §26, §27, §28
The target in assay [6] is proteins of HEK293T cells transiently overexpressing caspase-6 (Homo sapiens, UniProt P11142). Described as above. To be noted: Comp; protein HSPA8 P11142.
Procedure: as §1, §2, §3, §4, §5, §6, §7, §8, §9, §10, §11, §12, §13, §14, §15, §16, §17, §18, §19, §20, §21, §22, §23, §24, §25, §26, §27, §28
The target in assay [7] is proteins of HEK293T cells transiently overexpressing caspase-6 (Homo sapiens, UniProt O43143). The assay is described as above. The settings on record: Comp; protein DHX15 O43143.
Procedure: as §1, §2, §3, §4, §5, §6, §7, §8, §9, §10, §11, §12, §13, §14, §15, §16, §17, §18, §19, §20, §21, §22, §23, §24, §25, §26, §27, §28
Assay [8] addresses T2, proteins of HEK293T cells transiently overexpressing caspase-6 (Homo sapiens, UniProt P30084).
T2 sequence (P30084 28-290): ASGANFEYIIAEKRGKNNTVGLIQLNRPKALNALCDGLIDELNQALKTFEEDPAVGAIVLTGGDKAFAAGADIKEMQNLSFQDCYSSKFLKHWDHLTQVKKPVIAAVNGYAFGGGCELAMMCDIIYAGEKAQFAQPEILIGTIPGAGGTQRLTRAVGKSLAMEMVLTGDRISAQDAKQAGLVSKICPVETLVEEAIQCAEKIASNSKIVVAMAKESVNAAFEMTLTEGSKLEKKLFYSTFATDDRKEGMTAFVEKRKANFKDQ
The description is as above.
Procedure: as §1, §2, §3, §4, §5, §6, §7, §8, §9, §10, §11, §12, §13, §14, §15, §16, §17, §18, §19, §20, §21, §22, §23, §24, §25, §26, §27, §28

Setting [9] is: protein ECHS1 (P30084), Exp Comp, analysis C6, p 0.1250, 5 peptides.

Molecules are shown by their SMILES.

Sequence of proteins of HEK293T cells transiently overexpressing caspase-6 (Homo sapiens, UniProt Q15233) (Q15233 whole entry): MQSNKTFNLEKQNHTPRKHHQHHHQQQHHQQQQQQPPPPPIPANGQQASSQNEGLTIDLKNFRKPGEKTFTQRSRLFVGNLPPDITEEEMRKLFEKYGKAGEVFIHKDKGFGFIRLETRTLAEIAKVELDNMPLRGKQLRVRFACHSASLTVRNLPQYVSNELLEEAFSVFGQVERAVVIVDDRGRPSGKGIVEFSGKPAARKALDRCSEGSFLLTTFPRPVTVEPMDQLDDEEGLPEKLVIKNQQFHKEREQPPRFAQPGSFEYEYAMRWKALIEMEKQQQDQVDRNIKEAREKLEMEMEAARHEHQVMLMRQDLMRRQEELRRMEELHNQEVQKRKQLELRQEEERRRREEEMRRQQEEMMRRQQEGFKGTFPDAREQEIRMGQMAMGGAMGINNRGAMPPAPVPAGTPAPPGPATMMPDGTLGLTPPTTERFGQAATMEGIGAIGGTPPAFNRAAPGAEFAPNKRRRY
Sequence of proteins of HEK293T cells transiently overexpressing caspase-6 (Homo sapiens, UniProt O43143) (O43143 whole entry): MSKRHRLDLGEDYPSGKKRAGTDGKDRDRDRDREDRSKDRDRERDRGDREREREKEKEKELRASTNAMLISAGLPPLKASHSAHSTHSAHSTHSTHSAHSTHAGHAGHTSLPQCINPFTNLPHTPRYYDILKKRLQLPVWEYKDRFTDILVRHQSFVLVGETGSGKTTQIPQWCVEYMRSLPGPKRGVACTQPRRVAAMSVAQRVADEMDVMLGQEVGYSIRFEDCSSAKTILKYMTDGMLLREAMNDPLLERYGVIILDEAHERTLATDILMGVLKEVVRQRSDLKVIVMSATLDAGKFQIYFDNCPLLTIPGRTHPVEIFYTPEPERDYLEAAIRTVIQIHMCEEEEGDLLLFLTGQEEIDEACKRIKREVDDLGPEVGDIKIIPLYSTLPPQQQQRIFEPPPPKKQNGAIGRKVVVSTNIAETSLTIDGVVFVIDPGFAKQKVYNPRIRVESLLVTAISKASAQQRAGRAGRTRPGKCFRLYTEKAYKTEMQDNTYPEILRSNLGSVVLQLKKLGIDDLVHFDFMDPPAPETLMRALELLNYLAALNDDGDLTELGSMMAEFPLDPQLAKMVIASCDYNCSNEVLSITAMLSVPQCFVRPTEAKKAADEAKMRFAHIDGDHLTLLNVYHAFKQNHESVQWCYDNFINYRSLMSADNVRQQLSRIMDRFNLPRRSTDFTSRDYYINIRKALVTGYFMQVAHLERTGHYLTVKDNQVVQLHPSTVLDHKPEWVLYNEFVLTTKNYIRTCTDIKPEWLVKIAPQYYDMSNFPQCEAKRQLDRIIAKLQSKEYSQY
Sequence of proteins of HEK293T cells transiently overexpressing caspase-6 (Homo sapiens, UniProt P11142) (P11142 whole entry): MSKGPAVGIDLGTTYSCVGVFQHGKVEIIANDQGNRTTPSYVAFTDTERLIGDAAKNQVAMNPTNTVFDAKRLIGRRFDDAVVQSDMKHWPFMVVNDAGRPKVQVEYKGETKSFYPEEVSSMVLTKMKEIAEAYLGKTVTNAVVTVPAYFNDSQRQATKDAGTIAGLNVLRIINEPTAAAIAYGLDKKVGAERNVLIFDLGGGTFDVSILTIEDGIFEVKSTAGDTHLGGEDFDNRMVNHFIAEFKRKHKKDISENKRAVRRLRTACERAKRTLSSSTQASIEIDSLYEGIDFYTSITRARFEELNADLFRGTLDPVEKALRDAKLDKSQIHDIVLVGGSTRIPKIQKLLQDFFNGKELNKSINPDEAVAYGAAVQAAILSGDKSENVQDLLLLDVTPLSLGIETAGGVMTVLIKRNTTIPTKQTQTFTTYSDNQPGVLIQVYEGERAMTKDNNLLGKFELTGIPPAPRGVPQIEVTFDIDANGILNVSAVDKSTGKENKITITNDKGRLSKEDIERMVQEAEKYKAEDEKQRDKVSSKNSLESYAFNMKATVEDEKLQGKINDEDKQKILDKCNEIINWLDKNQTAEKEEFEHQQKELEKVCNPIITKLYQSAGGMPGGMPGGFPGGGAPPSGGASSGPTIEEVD

In the case of `C=CS(=O)(=O)N1C[C@H](C(=O)Nc2ccc(OC(F)(F)F)cc2)C[C@@H](c2ccccc2)C1` [3a], in assay [1], half-maximal inhibition (IC50) was put at 0.17 ± 0.004 µM. For the same molecule, the enrich.exp.med stood at 0.5931 in assay [2]; 0.6126 in assay [3]; 0.6677 in assay [4]; 0.7588 in assay [5]; 0.6036 in assay [6]; 0.7591 in assay [7]. Further, in assay [8] (Comp, protein ECHS1 P30084), the enrich.exp.med stood at 2.261. In assay [8] (setting [9]), the enrich.exp.med.lin is recorded as 4.794. Further, the enrich.exp.med.log2 in assay [8] (setting [9]) is listed as 2.261.

Broadly, the IC50 is the point on the concentration scale where inhibition reaches its midpoint. A higher IC50 goes with a need for much substance.
